Biological target: T1, TxGH116 β-glucosidase (Thermoanaerobacterium xylanolyticum, UniProt F6BL85, D593N)
T1 construct: gene Thexy_2211; pET30a/TxGH116Δ1-18 (residues 1-18 removed), E. coli BL21(DE3), IMAC, tag cut with enterokinase, Superdex 200
Experiment: X-ray crystal structure, soaked crystal
Assay type: binding
Details: pH 5.5

[1] = 200 mM soak, subsites –1 and +1 (Michaelis complex)

T1 sequence (F6BL85 entry or part of it D593N): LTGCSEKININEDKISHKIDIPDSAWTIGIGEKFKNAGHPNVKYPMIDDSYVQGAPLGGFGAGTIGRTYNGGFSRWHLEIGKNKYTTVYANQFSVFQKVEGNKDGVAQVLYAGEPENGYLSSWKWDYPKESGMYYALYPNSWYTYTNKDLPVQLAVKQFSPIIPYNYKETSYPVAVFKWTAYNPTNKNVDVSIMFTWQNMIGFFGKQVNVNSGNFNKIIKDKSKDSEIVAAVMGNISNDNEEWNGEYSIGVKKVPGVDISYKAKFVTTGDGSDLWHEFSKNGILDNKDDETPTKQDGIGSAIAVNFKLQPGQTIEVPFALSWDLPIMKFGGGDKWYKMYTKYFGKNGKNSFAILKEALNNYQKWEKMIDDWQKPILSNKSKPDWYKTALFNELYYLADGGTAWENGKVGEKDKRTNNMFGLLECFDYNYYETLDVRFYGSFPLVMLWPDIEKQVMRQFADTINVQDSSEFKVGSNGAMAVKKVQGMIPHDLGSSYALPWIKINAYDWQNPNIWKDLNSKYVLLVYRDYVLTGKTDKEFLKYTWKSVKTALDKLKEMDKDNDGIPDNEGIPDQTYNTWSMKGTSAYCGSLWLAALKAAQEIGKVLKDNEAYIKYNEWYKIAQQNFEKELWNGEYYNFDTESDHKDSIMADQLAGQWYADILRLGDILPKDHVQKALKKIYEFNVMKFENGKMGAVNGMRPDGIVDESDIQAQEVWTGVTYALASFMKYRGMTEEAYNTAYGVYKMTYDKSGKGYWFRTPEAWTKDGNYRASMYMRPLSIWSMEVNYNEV

O=[N+]([O-])c1ccc(O[C@@H]2O[C@H](CO)[C@@H](O)[C@H](O)[C@H]2F)c([N+](=O)[O-])c1 [2,4-dinitrophenyl 2-deoxy-2-fluroglucopyranoside]
X-ray crystal structure, soaked crystal (covalent 2-deoxy-2-fluoroglucosyl-enzyme at nucleophile E441, 10 mM soak): The covalent complex of TxGH116 D593N with G2F exhibits an overall structure

OC[C@H]1O[C@@H](O[C@H]2[C@H](O)[C@@H](O)C(O)O[C@@H]2CO)[C@H](O)[C@@H](O)[C@@H]1O (stereo partly drawn) [cellobiose]
X-ray crystal structure, soaked crystal [1]: The structure of TxGH116 D593N with cellobiose shows the same interactions

OC[C@H]1O[C@@H](O[C@H]2[C@H](O)[C@@H](CO)OC(O)[C@@H]2O)[C@H](O)[C@@H](O)[C@@H]1O (stereo partly drawn) [laminaribiose]
X-ray crystal structure, soaked crystal [1]: The TxGH116 D593N variant with laminaribiose (Figure 2B) displays the glycosidic oxygen

— article PMC10167657, “Reaction Mechanism of Glycoside Hydrolase Family 116 Utilizes Perpendicular Protonation” (ACS Catalysis, 2023)
